Assay [1] has as its system Streptococcus pyogenes. Briefly: Antibacterial activity in mice infected with Streptococcus pyogenes C203. The assay is classed as functional.
The subject of assay [2] is Staphylococcus aureus. Briefly: Antibacterial activity in mice infected with Staphylococcus aureus 3055 by oral administration. The class given is functional.
The subject of assay [3] is Staphylococcus aureus. Briefly: Antibacterial activity in mice infected with Staphylococcus aureus 3055 by subcutaneous administration. The assay is classed as functional.
Assay [4] deals with Streptococcus pneumoniae. Kind of assay: Antibacterial activity in mice infected with Streptococcus pneumoniae Park1 by oral administration. The assay is classed as functional.
The subject of assay [5] is Streptococcus pneumoniae. Kind of assay: Antibacterial activity in mice infected with Streptococcus pneumoniae Park1 by subcutaneous administration. The class given is functional.
Assay [6] relates to Streptococcus pneumoniae. Briefly: Antibacterial activity in mice infected with Streptococcus pneumoniae Park1. The class given is functional.
The test system of assay [7] is Streptococcus pyogenes. Kind of assay: Antibacterial activity in mice infected with Streptococcus pyogenes C203 after oral administration. The class given is functional.
Assay [8] relates to Streptococcus pyogenes. Briefly: Antibacterial activity in mice infected with Streptococcus pyogenes C203 after subcutaneous administration. The assay is classed as functional.
Assay [9] deals with Staphylococcus aureus. Kind of assay: Antibacterial activity in mice infected with Staphylococcus aureus 3055. The assay is classed as functional.
The subject of assay [10] is Haemophilus influenzae. Kind of assay: Antibacterial activity against resistant Haemophilus influenzae 76. The assay is classed as functional.
Assay [11] has as its system Haemophilus influenzae. Kind of assay: Antibacterial activity against sensitive Haemophilus influenzae C.L. The assay is classed as functional.
In assay [12] the test system is Streptococcus pneumoniae. Kind of assay: Antibacterial activity against Streptococcus pneumoniae Park. The class given is functional.
Assay [13] concerns Streptococcus pyogenes. Kind of assay: Antibacterial activity against Streptococcus pyogenes C203. The assay is classed as functional.
Assay [14] has as its system Staphylococcus aureus. Briefly: Antibacterial activity against penicillin G sensitive Staphylococcus aureus X1.1. The assay is classed as functional.
Assay [15] deals with Staphylococcus epidermidis. Kind of assay: Antibacterial activity against Staph. epidermis EP11. The class given is functional.
Assay [16] concerns Streptococcus pyogenes. Briefly: Antibacterial activity in mice infected with Streptococcus pyogenes C203 by subcutaneous administration. The class given is functional.
Assay [17] deals with Streptococcus pyogenes. Kind of assay: Antibacterial activity in mice infected with Streptococcus pyogenes C203 by oral administration. The class given is functional.
The subject of assay [18] is Streptococcus pneumoniae. Briefly: Antibacterial activity against Streptococcus pneumoniae Park.
The subject of the next assay is Streptococcus. Kind of assay: Antibacterial activity against Streptococcus group D X66. The assay is classed as functional.
Assay [19] has as its system Staphylococcus aureus. Kind of assay: Antibacterial activity in mice infected with Staphylococcus aureus 3055 after oral administration. The class given is functional.
Assay [20] relates to Staphylococcus aureus. Briefly: Antibacterial activity in mice infected with Staphylococcus aureus 3055 after subcutaneous administration. The class given is functional.
Assay [21] relates to Streptococcus pneumoniae. Briefly: Antibacterial activity in mice infected with Streptococcus pneumoniae Park1 after oral administration. The class given is functional.
Assay [22] relates to Streptococcus pneumoniae. Kind of assay: Antibacterial activity in mice infected with Streptococcus pneumoniae Park1 after subcutaneous administration. The assay is classed as functional.
Assay [23] concerns Staphylococcus aureus. Kind of assay: Antibacterial activity against methicillin resistant Staphylococcus aureus S13E. The class given is functional.
The test system of assay [24] is Staphylococcus aureus. Kind of assay: Antibacterial activity against methicillin resistant Staphylococcus aureus X400. The class given is functional.
The subject of assay [25] is Staphylococcus aureus. Kind of assay: Antibacterial activity against penicillin G sensitive Staphylococcus aureus V41. The class given is functional.

Converted amounts (≈) assume the structure as drawn.

Five compounds from ChEMBL document CHEMBL1122874, “Orally absorbable cephalosporin antibiotics. 1. Structure-activity relationships of benzothienyl- and naphthylglycine derivatives of 7-aminodeacetoxycephalosporanic acid” (1985) can be followed below.

Broadly, the ED50 is the midpoint of the dose-response relation. Read a low ED50 as greater potency. On to `N[C@@H](C(=O)N[C@@H]1C(=O)N2C(C(=O)O)=C(Cl)CS[C@H]12)c1ccccc1` [CEFACLOR ANHYDROUS], for which the values for the MIC with Streptococcus pyogenes [1], in the assay on Streptococcus pneumoniae [6] and against Staphylococcus aureus [9] were 0.25 µg/mL (≈ 0.68 µM), 2 µg/mL (≈ 5.44 µM) and 1 µg/mL (≈ 2.72 µM), respectively. Moreover, the ED50 with Staphylococcus aureus [2] turned out to be 0.13 mg/kg; in the assay with Staphylococcus aureus [3], 0.03 mg/kg; in the assay on Streptococcus pneumoniae [4] it was 10.7 mg/kg; in the assay on Streptococcus pneumoniae [5], 11.5 mg/kg; in the assay on Streptococcus pyogenes [7] it was 0.8 mg/kg; in the assay on Streptococcus pyogenes [8] it was 1.4 mg/kg.
Regarding `CC1=C(C(=O)O)N2C(=O)C(NC(=O)[C@H](N)c3csc4cccc(F)c34)C2SC1` (stereo partly drawn), the MIC in the assay on Haemophilus influenzae [10] came out at 4 µg/mL (≈ 9.49 µM); in the assay with Haemophilus influenzae [11], 16 µg/mL (≈ 38 µM); with Streptococcus pneumoniae [12], 4 µg/mL (≈ 9.49 µM); against Streptococcus pyogenes [13], 1 µg/mL (≈ 2.37 µM); against Staphylococcus aureus [14], 4 µg/mL (≈ 9.49 µM).
Turning to `CC1=C(C(=O)O)N2C(=O)C(NC(=O)[C@@H](N)c3cc4ccccc4s3)C2SC1` (stereo partly drawn), the MIC worked out at 1 µg/mL (≈ 2.48 µM) against Haemophilus influenzae [10]; 32 µg/mL (≈ 79.3 µM) against Haemophilus influenzae [11]; 2 µg/mL (≈ 4.96 µM) in [15]; 0.5 µg/mL (≈ 1.24 µM) against Streptococcus pyogenes [13]; 0.25 µg/mL (≈ 0.62 µM) against Streptococcus pyogenes [1]; 0.5 µg/mL (≈ 1.24 µM) against Staphylococcus aureus [14]. The MIC against Streptococcus pneumoniae [6] was 1 µg/mL (≈ 2.48 µM); with Staphylococcus aureus [9] it was 0.25 µg/mL (≈ 0.62 µM); against Streptococcus pneumoniae [18] it was 2 µg/mL (≈ 4.96 µM). The ED50 in the assay with Streptococcus pyogenes [16] turned out to be 2.6 mg/kg; in the assay with Staphylococcus aureus [2], 0.13 mg/kg; in the assay with Staphylococcus aureus [3] it was 0.13 mg/kg; in the assay on Streptococcus pneumoniae [4] it was 31 mg/kg; with Streptococcus pneumoniae [5] it was 15 mg/kg; in the assay with Streptococcus pyogenes [17], 2.3 mg/kg.
For `CC1=C(C(=O)O)N2C(=O)C(NC(=O)[C@@H](N)c3csc4ccccc34)C2SC1` (stereo partly drawn), the MIC was 0.5 µg/mL (≈ 1.24 µM) in the assay on Haemophilus influenzae [10]; 2 µg/mL (≈ 4.96 µM) with Haemophilus influenzae [11]; 128 µg/mL (≈ 317 µM) with Streptococcus; 0.5 µg/mL (≈ 1.24 µM) against Streptococcus pyogenes [13]; 0.5 µg/mL (≈ 1.24 µM) with Streptococcus pyogenes [1]; 1 µg/mL (≈ 2.48 µM) in the assay with Staphylococcus aureus [14]. Also, the MIC in the assay with Streptococcus pneumoniae [6] is 1 µg/mL (≈ 2.48 µM); with Staphylococcus aureus [9], 1 µg/mL (≈ 2.48 µM); against Streptococcus pneumoniae [18] it was 0.5 µg/mL (≈ 1.24 µM). Besides, the ED50 with Staphylococcus aureus [19] stood at 0.6 mg/kg; with Staphylococcus aureus [20], 0.4 mg/kg; in the assay on Streptococcus pneumoniae [21], 16 mg/kg; with Streptococcus pneumoniae [22], 18 mg/kg; in the assay with Streptococcus pyogenes [7] it was 1.7 mg/kg; with Streptococcus pyogenes [8] it was 2.3 mg/kg.
`CC1=C(C(=O)O)N2C(=O)C(NC(=O)[C@H](N)c3ccc4ccccc4c3)C2SC1` (stereo partly drawn): the MIC against Haemophilus influenzae [10] worked out at 2 µg/mL (≈ 5.03 µM); with Haemophilus influenzae [11] it was 8 µg/mL (≈ 20.1 µM); in [15], 4 µg/mL (≈ 10.1 µM); against Streptococcus, 64 µg/mL (≈ 161 µM); with Staphylococcus aureus [23], 8 µg/mL (≈ 20.1 µM); in the assay with Staphylococcus aureus [24], 64 µg/mL (≈ 161 µM). In addition, the MIC in the assay with Streptococcus pyogenes [13] is 0.125 µg/mL (≈ 0.315 µM); in the assay with Streptococcus pyogenes [1], 0.125 µg/mL (≈ 0.315 µM); against Staphylococcus aureus [25] it was 8 µg/mL (≈ 20.1 µM); with Staphylococcus aureus [14], 0.5 µg/mL (≈ 1.26 µM); in the assay with Streptococcus pneumoniae [6] it was 1 µg/mL (≈ 2.52 µM); in the assay on Staphylococcus aureus [9], 0.5 µg/mL (≈ 1.26 µM). Besides, in the assay on Streptococcus pneumoniae [18], the MIC stood at 0.5 µg/mL (≈ 1.26 µM). The ED50 was 2 mg/kg in the assay with Streptococcus pyogenes [16]; 0.41 mg/kg in the assay with Staphylococcus aureus [2]; 0.07 mg/kg in the assay with Staphylococcus aureus [3]; over 25 mg/kg in the assay on Streptococcus pneumoniae [4]; 17.6 mg/kg in the assay with Streptococcus pneumoniae [5]; 3.4 mg/kg in the assay with Streptococcus pyogenes [17].
